Measured values: US9109048B2, “Inhibition of tumor growth” (priority 1998, dated 2015)
In brackets after ≈: the same amount, converted by molar mass. Each block holds one molecule with its values, some of them ahead of it. Square brackets hold non-standard residues; d marks the D form. Ends that are not written are not given here. Peptide text beside a SMILES is read from it. * marks the point of attachment. Trp(2-Pmc) = Cc1c(C)c(S(=O)(=O)c2[nH]c3ccccc3c2C[C@H](N)C(=O)O)c(C)c2c1OC(C)(C)CC2; Bip = N[C@@H](Cc1ccc(-c2ccccc2)cc1)C(=O)O; Fmoc = O=C(OCC1c2ccccc2-c2ccccc21)*; Acm = CC(=O)NC*

Experiments:
[1] = system: Meth A cells (murine sarcoma cell line); test: Cytotoxicity on Meth A cells, MTT method
Description: Peptide solutions (0.1 ml) were added and the plates incubated at 37° C. for 30 minutes, 4 hours or 24 hours. The cytotoxicity was measured using the MTT method (Mosmann et al., J. Immunol. (1986) 136, 2348-2357).
Cells in the growth phase were harvested and washed in fresh medium and injected subcutaneously into the abdominal region of the mice.
The cytotoxic effect of the peptides on different murine and human tumor cells were measured using the MTT method (Mosmann et al., J. Immunol. (1986) 136, 2348-2357).
MTT is a soluble tetrazolium salt yielding a yellow solution when prepared in media or salt solutions lacking phenol red. Dissolved MTT is converted to an insoluble purple formazan by cleavage of the tetrazolium ring by dehydrogenase enzymes. This water insoluble formazan can be solubilized using isopropanol or other solvents and the dissolved material is measured spectrophotometrically. The absorbance was measured as a function of concentration of converted dye.
Cells were maintained in […] medium containing 10% FBS, 1% L-glutamine and 0.1% penicillin and streptomycin. Cells to be used in the assay were grown to confluency, trypsinated and split to single cell suspension, counted and centrifuged at 1500 rpm for 10 min. […][…] of cell suspension was transferred to each well on a 96-well microtiter plate. The cells were stimulated by adding […] of various concentrations of peptides diluted with assay medium to each well. The final concentrations of peptide were for example: 5, 10, 20, 40, 60, 80, 100, and 200 mg/ml. […] As a negative control only medium was added to the cells, and as a positive control (100% killing) 1% triton X-100 was added. Following an incubation period of 4 h., 20 ml MTT dissolved in PBS at a concentration of 5 mg/ml was added to each well, and the plate was incubated further for 2 h. 130 ml of the supernatant were then removed and […] acid alcohol (0.04-0.1 N HCl in isopropanol) added to each well to dissolve the dark blue crystals. The plate was placed on a shaker for 1 h and read spectrophotometrically at 590 nm in a microtiterplate reader using the Softmaxâ program.

[2] = system: Escherichia coli ATCC 25922; test: MIC (minimum inhibitory concentration) test, microdilution; format: cell-based
Description: (§1) The bacterial strains used were: Escherichia coli ATCC 25922 and Staphylococcus aureus ATCC 25923. All strains were stored at −70° C. The bacteria were grown in 2% Bacto Peptone water (Difco 1807-17-4). All tests were performed with bacteria in mid-logarithmic growth phase. Determination of the minimum inhibitory concentration (MIC) of the peptides for bacterial strains were performed in 1% Bacto Peptone water. A standard microdilution technique with an inoculum of 2×10^6 CFU/ml was used. All assays were performed in triplets. Since the peptides are positively charged and therefore could adhere to the plastic wells, we controlled the actual concentration of the peptides in the solution by HPLC. There was no difference between the concentration of the peptides before or after adding the solution to the plastic wells.

[3] = system: Staphylococcus aureus ATCC 25923; test: as above; format: cell-based
Description: as §1

[4] = system: MRSA (methicillin resistant S. aureus); format: cell-based; settings: Table 15
Description: as §1
Table 15 below gives the antibacterial activity and toxicity data for some preferred peptides of the invention. MRSA is methicillin resistant S. aureus and MRSE is methicilin resistant S. epidermidis.

human red blood cells = test: Hemolytic assay; format: cell-based; settings: red cells of human
Description: The hemolytic activities of the peptides were determined using fresh human red blood cells. 8 ml blood was taken from a healthy person. 4 ml blood was transferred to a polycarbonate tube containing heparin to a final concentration of 10 U/ml, and the remaining 4 ml blood was transferred to a glass tube containing EDTA with final concentration of 15% EDTA. The erythrocytes were isolated from heparin-treated blood by centrifugation in 1500 rpm for 10 min and washed three times with phosphate-buffered saline (PBS) to remove plasma and buffy coat. The cell pellet was resuspended in PBS to make the final volume of 4 ml. The peptide was diluted to a concentration of 2 mg/ml and 0.1 mg/ml. The peptide was further diluted to the concentrations as stated in Table 1. For each tube PBS was added first, then RBCs and peptide solutions. The hematocrit in the blood treated with EDTA was determined after 30 min with Sysmex K-1000, and the resuspended RBCs were diluted into 10% hematocrit. RBCs in PBS (1%) with and without peptides (Table 18) were incubated in a shaker at 37° for 1 hour and then centrifuged at 4000 rpm for 5 min. The supernatant were carefully transferred to new polycarbonate tubes and the absorbance of the supernatant was measured at 540 nm. Baseline hemolysis was hemoglobin released in the presence of PBS, and 100% hemolysis was hemoglobin released in the presence of 0.1% Triton X-100.

[5] = Table 7, in µg/mL (unit assumed)

Molecule: H-KVALKALKVALKALKVALKAL-NH2 [MSI 20, reference compound]
Meth A IC 50 ([1]; 4 h): >100 µg/mL

Molecule: CSCC[C@H](NC(=O)[C@H](CCCNC(=N)N)NC(=O)[C@H](Cc1ccc(-c2ccccc2)cc1)NC(=O)[C@H](CCC(N)=O)NC(=O)[C@H](Cc1ccc(-c2ccccc2)cc1)NC(=O)[C@H](CCCNC(=N)N)NC(=O)[C@H](CCCNC(=N)N)NC(=O)[C@H](CSCNC(C)=O)NC(=O)[C@H](CCCCN)NC(=O)[C@@H](N)Cc1ccccc1)C(=O)N[C@@H](CCCCN)C(=O)N[C@@H](CCCCN)C(=O)N[C@@H](CC(C)C)C(=O)NCC(=O)N[C@@H](C)C(=O)O [LFB Bip6,8]
MIC E. coli ([2]; Table 15): ≧5.8 μM
MIC S. aureus ([3]; Table 15): 3.0 µg/mL
MIC MRSA [4]: 2.5 µg/mL (≈ 1.17 µM)

Molecule: PAWRKARRWAWRMKKLAA-OH [LFB 14-31 A2,6,10,17R4]
MIC E. coli ([2]; ATCC 25922): 13.1 µM
MIC E. coli ([2]; Table 8): 30 µg/mL
MIC E. coli ([2]; Table 15): 30.0 µg/mL
MIC S. aureus ([3]; ATCC 25923): 8.8 µM
MIC S. aureus ([3]; Table 8): 20 µg/mL
MIC S. aureus ([3]; Table 15): 20.0 µg/mL
EC 50 (toxicity, hemolysis) (human red blood cells): >1000 µg/mL

Molecule: KVALKWLKVALKALKVALKAL-NH2 (C-terminus assumed) [MSI 20 W6]
Meth A IC 50 ([1]; 4 h): 22 µg/mL

Molecule: CSCC[C@H](NC(=O)[C@H](CCCNC(=N)N)NC(=O)[C@H](C)NC(=O)[C@H](CCC(N)=O)NC(=O)[C@H](Cc1c(S(=O)(=O)c2c(C)c(C)c3c(c2C)CCC(C)(C)O3)[nH]c2ccccc12)NC(=O)[C@H](CCCNC(=N)N)NC(=O)[C@H](CCCNC(=N)N)NC(=O)[C@H](CSCNC(C)=O)NC(=O)[C@H](CCCCN)NC(=O)[C@H](Cc1ccccc1)NC(=O)OCC1c2ccccc2-c2ccccc21)C(=O)N[C@@H](CCCCN)C(=O)N[C@@H](CCCCN)C(=O)N[C@@H](CC(C)C)C(=O)NCC(=O)N[C@@H](C)C(=O)O [LFB A8 FMOC PMC] (Fmoc-FKC(Acm)RR[Trp(2-Pmc)]QARMKKLGA-OH)
concentration effective in killing Meth A cells ([1]; 4 hours incubation): 50 µg/mL
concentration effective in killing Meth A cells ([1]; ½ hour incubation): higher than 100 μg/ml

Molecule: KMASKAWKIAGKIAKVALKAL-NH2 (C-terminus assumed) [MSI 24 W7]
MIC E. coli ([2]; ATCC 25922): 5 µg/mL
MIC S. aureus ([3]; ATCC 25923): 5 µg/mL
Meth A IC 50 ([1]; 4 h): 26 µg/mL

Molecule: Linear LFB (17-41) modified with Pmc: Linear LFB (17-41) modified with Pmc (FKCRRWQWRMKKLGAPSITCVRRAF; cysteine pairing not given here; also: modified with Pmc group, site not given here; UniProt P24627 36-60, looked up, fragment)
cytotoxic effect on Meth A cells compared with another peptide [1]: slightly more effective than Pmc modified LFB 17-31

Molecule: CSCC[C@H](NC(=O)[C@H](CCCNC(=N)N)NC(=O)[C@H](Cc1c[nH]c2ccccc12)NC(=O)[C@H](CCC(N)=O)NC(=O)[C@H](Cc1c[nH]c2ccccc12)NC(=O)[C@H](CCCNC(=N)N)NC(=O)[C@H](CCCNC(=N)N)NC(=O)[C@H](Cc1ccc(-c2ccccc2)cc1)NC(=O)[C@H](CCCCN)NC(=O)[C@@H](N)Cc1ccccc1)C(=O)N[C@@H](CCCCN)C(=O)N[C@@H](CCCCN)C(=O)N[C@@H](CC(C)C)C(=O)NCC(=O)N[C@@H](C)C(=O)O [LFB Bip3] (H-FK[Bip]RRWQWRMKKLGA-OH; N-terminus assumed)
MIC MRSA [4]: 2.5 µg/mL (≈ 1.18 µM)

Molecule: PAWRKAFRWAWRMKKLAA-OH [LFB 14-31 A2,6,10,17F7R4]
MIC E. coli ([2]; ATCC 25922): 4.4 µM
MIC E. coli ([2]; Table 8): 10 µg/mL
MIC E. coli ([2]; Table 15): 10.0 µg/mL
EC50 (human red blood cells): > 440 µM
EC 50 (toxicity, hemolysis) (human red blood cells): >1000 µg/mL

Molecule: H-GIGKFLHSAKKFGKAFVGEIMNS-OH [Mag2, reference compound]
MIC E. coli [2, 5]: 20
MIC E. coli ([2]; Table 11): 20 µg/mL
MIC S. aureus [3, 5]: >200
MIC S. aureus ([3]; Table 11): >100 µg/mL
Meth A IC 50 ([1]; Table 11, peptide required to kill 50% of Meth A cells): 100 µg/mL

Molecule: PAWFKARRWAWRMLKKAA-OH [LFB 14-31 A2,6,10,17 K16L14]
MIC E. coli ([2]; ATCC 25922): 4.4 µM
MIC E. coli ([2]; Table 15): 10.0 µg/mL
MIC S. aureus ([3]; ATCC 25923): 4.4 µM
MIC S. aureus ([3]; Table 15): 10.0 µg/mL
EC50 (human red blood cells): > 440 µM
EC 50 (toxicity, hemolysis) (human red blood cells): >1000 µg/mL

Molecule: CSCC[C@H](NC(=O)[C@H](CCCNC(=N)N)NC(=O)[C@H](C)NC(=O)[C@H](CCC(N)=O)NC(=O)[C@H](Cc1c[nH]c2ccccc12)NC(=O)[C@H](CCCNC(=N)N)NC(=O)[C@H](CCCNC(=N)N)NC(=O)[C@H](CSCNC(C)=O)NC(=O)[C@H](CCCCN)NC(=O)[C@H](Cc1ccccc1)NC(=O)OCC1c2ccccc2-c2ccccc21)C(=O)N[C@@H](CCCCN)C(=O)N[C@@H](CCCCN)C(=O)N[C@@H](CC(C)C)C(=O)NCC(=O)N[C@@H](C)C(=O)O [LFB A8 FMOC] (Fmoc-FKC(Acm)RRWQARMKKLGA-OH)
concentration effective in killing Meth A cells ([1]; 4 hours incubation): 250 µg/mL
concentration effective in killing Meth A cells ([1]; ½ hour incubation): 250 µg/mL

Further lines, with some results ahead:

MIC E. coli ([2]; ATCC 25922): 5 µg/mL
MIC S. aureus ([3]; ATCC 25923): 5 µg/mL
Molecule: H-KMASKAGKIAGKIAKVALKAL-NH2 [MSI 24, reference compound]
Meth A IC 50 ([1]; 4 h): >100 µg/mL

MIC E. coli ([2]; ATCC 25922): 7.5 µg/mL
MIC E. coli [2, 5]: 5-10
MIC S. aureus ([3]; ATCC 25923): 10 µg/mL
MIC S. aureus [3, 5]: 5-10
Molecule: GIGKFLHSAKKFGKAFVGWIMNS [Mag2 W19]
Meth A IC 50 ([1]; 4 h): 9 µg/mL

MIC E. coli ([2]; ATCC 25922): 15 µg/mL
MIC S. aureus ([3]; ATCC 25923): 10 µg/mL
Molecule: GIGKFWKKARKWGRWFWRILKKG [Tosmag W6,12,15,17]
Meth A IC 50 ([1]; 4 h): 23 µg/mL

MIC E. coli ([2]; ATCC 25922): 8 µg/mL
MIC S. aureus ([3]; ATCC 25923): 8 µg/mL
Molecule: H-GIGKFLKKARKFGRAFVRILKKG-OH [Tosmag, reference compound]
Meth A IC 50 ([1]; 4 h): 18 µg/mL

MIC E. coli ([2]; ATCC 25922): >50 µg/mL
MIC S. aureus ([3]; ATCC 25923): >50 µg/mL
Molecule: GIGKWLKKWRKFWRAWVRIWKKG [Tosmag W5,9,13,16,20]
Meth A IC 50 ([1]; 4 h): 23 µg/mL

MIC E. coli ([2]; ATCC 25922): 5 µg/mL
MIC S. aureus ([3]; ATCC 25923): 2.5 µg/mL
Molecule: KMASKAGKIAWKIAKVALKAL-NH2 (C-terminus assumed) [MSI 24 W11]
Meth A IC 50 ([1]; 4 h): 24 µg/mL
